Source: publication PMC8596838, “Xylose‐Configured Cyclophellitols as Selective Inhibitors for Glucocerebrosidase” (Chembiochem, 2021)

Experiments:
Format in all cases: biochemical
Details in all cases: 30 min, pH 6.0
GBA2 = biological target: T1, GBA2 (Homo sapiens, UniProt Q9HCG7); assay: ABP labeling of β-D-glucosidases in HEK293T cell lysate, GBA2
T1 construct: expressed in transfected cells; host or cells: HEK293T (GBA/GBA2 KO background for the fluorogenic assay; endogenous-GBA background with GBA2 and GBA3 overexpressed for ABPP and intact-cell assays)
T1 sequence (Q9HCG7 1-927): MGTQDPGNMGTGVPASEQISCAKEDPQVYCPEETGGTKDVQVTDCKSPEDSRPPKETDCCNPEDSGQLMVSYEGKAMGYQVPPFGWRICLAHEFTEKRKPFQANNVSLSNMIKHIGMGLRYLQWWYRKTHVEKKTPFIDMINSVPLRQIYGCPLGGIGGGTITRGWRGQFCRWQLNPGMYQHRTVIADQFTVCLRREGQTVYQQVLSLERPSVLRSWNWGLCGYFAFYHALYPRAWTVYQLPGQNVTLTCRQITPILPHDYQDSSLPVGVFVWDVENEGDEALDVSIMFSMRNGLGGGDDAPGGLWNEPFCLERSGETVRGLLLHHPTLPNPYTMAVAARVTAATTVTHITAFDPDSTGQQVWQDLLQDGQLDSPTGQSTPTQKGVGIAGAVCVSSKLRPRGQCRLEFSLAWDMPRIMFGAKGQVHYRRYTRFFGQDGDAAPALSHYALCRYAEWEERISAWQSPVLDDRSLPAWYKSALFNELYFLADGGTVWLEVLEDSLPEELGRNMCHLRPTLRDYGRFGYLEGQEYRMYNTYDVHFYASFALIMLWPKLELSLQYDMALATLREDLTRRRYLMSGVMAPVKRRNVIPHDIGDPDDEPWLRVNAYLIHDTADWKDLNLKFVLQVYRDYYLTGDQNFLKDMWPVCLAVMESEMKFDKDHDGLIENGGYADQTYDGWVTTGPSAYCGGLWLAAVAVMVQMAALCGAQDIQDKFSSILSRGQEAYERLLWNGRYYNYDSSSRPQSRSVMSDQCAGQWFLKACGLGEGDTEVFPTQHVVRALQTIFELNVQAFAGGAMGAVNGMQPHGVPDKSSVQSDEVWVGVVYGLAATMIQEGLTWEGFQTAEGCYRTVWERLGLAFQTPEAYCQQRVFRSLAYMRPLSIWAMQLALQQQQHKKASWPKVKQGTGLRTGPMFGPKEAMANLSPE
Description: (§1) We next investigated, by ABPP, the GBA/GBA2/GBA3 activity and selectivity of β‐D‐xylo‐cyclophellitol aziridine ABPs 6 and 8 in comparison to those of GBA‐specific ABP 9 [31] or ABP 10.
(§2) Figure 4 (A) ABP labeling of β‐D‐glucosidases. A lysate of HEK293T cells expressing human GBA, GBA2 and GBA3 was incubated with indicated ABPs (6, 9 or 10) for 30 min at pH 6.0. Fluorescently labeled proteins were visualized after SDS‐PAGE. (B) Labeling with ABP 6 of wild type or mutant GBA2 (E527G nucleophile mutation and D667G acid/base mutation) expressed in HEK293T cells.
(§3) ABP labeling procedure: Glycosidases were labeled with excess fluorescent ABPs at optimum conditions. […] After ABP incubation, proteins were denatured by boiling the samples with 5× Laemmli buffer (50 % (v/v) 1 M Tris‐HCl, pH 6.8, 50 % (v/v) 100 % glycerol, 10 % (w/v) DTT, 10 % (w/v) SDS, 0.01 % (w/v) bromophenol blue) for 5 min at 98 °C, and separated by electrophoresis on 10 % (w/v) SDS‐PAGE gels running continuously at 90 V. Wet slab‐gels were scanned on fluorescence using the Typhoon FLA 9500 (GE Healthcare) at λEX 473 nm and λEM≥510 nm for green fluorescent ABP 8; and at λEX 635 nm and λEM≥665 nm for ABP 6, 9 and 10. ABP‐emitted fluorescence was quantified using ImageQuant software (GE Healthcare, Chicago, IL, USA) and curve‐fitted using Prism 8.0 (GraphPad Software). […]

GBA3 = biological target: T2, GBA3 (Homo sapiens, UniProt Q9H227); assay: ABP labeling of β-D-glucosidases in HEK293T cell lysate, GBA3
T2 construct: expressed in transfected cells; host or cells: HEK293T (GBA/GBA2 KO background for the fluorogenic assay; endogenous-GBA background with GBA2 and GBA3 overexpressed for ABPP and intact-cell assays)
T2 sequence (Q9H227 1-469): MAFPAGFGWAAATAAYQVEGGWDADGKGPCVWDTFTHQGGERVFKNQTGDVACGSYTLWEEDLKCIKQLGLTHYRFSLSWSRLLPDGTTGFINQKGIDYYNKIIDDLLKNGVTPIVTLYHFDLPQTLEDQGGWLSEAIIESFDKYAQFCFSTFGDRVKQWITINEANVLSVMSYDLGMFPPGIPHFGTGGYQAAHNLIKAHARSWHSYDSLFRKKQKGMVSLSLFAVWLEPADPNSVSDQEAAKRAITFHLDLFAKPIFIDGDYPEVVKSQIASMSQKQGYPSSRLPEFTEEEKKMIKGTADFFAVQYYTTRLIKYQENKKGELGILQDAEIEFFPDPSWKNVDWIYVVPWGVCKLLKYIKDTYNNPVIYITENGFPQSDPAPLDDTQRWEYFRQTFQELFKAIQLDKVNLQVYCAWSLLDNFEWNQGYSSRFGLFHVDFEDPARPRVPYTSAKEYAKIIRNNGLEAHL
Description: as §1, §2, §3

GBA = biological target: T3, GBA (Homo sapiens, UniProt P04062); assay: ABP labeling of β-D-glucosidases in HEK293T cell lysate, GBA
T3 construct: HEK293T cells that contain endogenous GBA; endogenous in cells; host or cells: HEK293T (ATCC CRL-3216) overexpressing GBA2 and GBA3
T3 sequence (P04062 40-536): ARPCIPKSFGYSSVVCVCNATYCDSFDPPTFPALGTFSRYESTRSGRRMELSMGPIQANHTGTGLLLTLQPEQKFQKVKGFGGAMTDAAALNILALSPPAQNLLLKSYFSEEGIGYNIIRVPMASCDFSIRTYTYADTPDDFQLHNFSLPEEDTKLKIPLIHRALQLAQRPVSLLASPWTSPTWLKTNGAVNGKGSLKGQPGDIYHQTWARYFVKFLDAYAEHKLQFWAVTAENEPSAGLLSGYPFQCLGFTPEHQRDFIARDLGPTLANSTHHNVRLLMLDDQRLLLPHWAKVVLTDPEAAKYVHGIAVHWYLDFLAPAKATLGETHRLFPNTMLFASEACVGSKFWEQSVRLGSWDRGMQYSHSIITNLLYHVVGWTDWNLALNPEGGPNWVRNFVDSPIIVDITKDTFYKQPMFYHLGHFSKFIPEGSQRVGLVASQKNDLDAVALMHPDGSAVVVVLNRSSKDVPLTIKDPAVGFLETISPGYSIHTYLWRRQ
Description: as §1, §2, §3

SMILES	labeling pattern of GBA and GBA2 (GBA2)	labeling of GBA3 compared with ABP 10 (GBA3)	selectivity of ABP labeling towards GBA over GBA2 and GBA3 (GBA)
CN1/C(=C/C=C/C=C/C2=[N+](CCCCCC(=O)NCc3cn(CCCCCCCCN4[C@H]5[C@H](O)[C@@H](O)[C@H](O)C[C@H]54)nn3)c3ccccc3C2(C)C)C(C)(C)c2ccccc21 (stereo partly drawn) [ABP 6]	very similar to that of the broad‐specific β‐D‐glucosidase ABP 10	tenfold less efficiently	–
CN1/C(=C/C=C/C=C/C2=[N+](CCCCCC(=O)NCc3cn(C[C@@H]4[C@@H](O)[C@H](O)[C@@H](O)[C@@H]5O[C@H]45)nn3)c3ccccc3C2(C)C)C(C)(C)c2ccccc21 [ABP 9, reference compound]	–	–	most selective ABP towards GBA over GBA2 and GBA3
